From patent US20250122504A1, “COMBINATIONS WITH MODULATORS OF PNPLA3 EXPRESSION” (AstraZeneca AB, priority 2021, published 2025) come the findings set out here.

{GalNAc3} = triantennary N-acetylgalactosamine conjugate

Data set [1] has as its system Pnpla3^148M/M mice fed a NASH-inducing diet. The data set can be described thus: NAFLD activity score (NAS) and inflammation score from liver histology. In kind it is in vivo, mouse. Conditions: 14 weeks treatment, FIG. 4. The method, then: (§1) Male Pnpla3^148M/M mice (6-8 weeks of age) were fed a diet high in fat (40 kcal % fat (non-trans fat Primex Shortening), fructose (20 kcal %) and cholesterol (2%) (NASH diet; D16022301, Research Diets, New Brunswick, NJ) for 22 weeks. The mice were then assigned to study groups based on body weight, and fed the same NASH diet and dosed with either 1) control ASO+saline, 2) Pnpla3 ASO+saline, 3) control ASO+Cotadutide, or 4) Pnpla3 ASO+Cotadutide for 14 weeks. The ASOs were dosed at 5 mg/kg/week administered by two subcutaneous injections per week with saline as vehicle. Cotadutide was dosed at 1 nmol/kg administered by daily subcutaneous injections with saline as vehicle. […] Body weights were recorded during the study. […]
The NAFLD activity score (NAS) was determined according to the method reported by Kleiner et al (Kleiner et al Hepatology, 2005, DOI: 10.1002/hep.20701). […]
Differences between treatment groups were examined using 1-way ANOVA followed by Tukey's post-hoc tests (GraphPad Prism v.8.0.1., GraphPad Software, CA). Differences between treatment groups for the NAFLD activity score (NAS) derived from liver histology were analyzed by ordinal regression analyses followed by correction of family-wise error rate using the Šidák method. […]

The test system is the same in data set [2]. In words: Liver fibrosis as liver collagen 1A1 content (immunohistochemistry). In kind it is in vivo, mouse. As to conditions: 14 weeks treatment, compared to control ASO, FIG. 5. The method, then:
as §1
Four μm thick formaldehyde-fixed, paraffin-embedded mouse liver sections (one lover section per mouse) were routinely stained with hematoxylin-eosin (HE). […] Slides were scanned into Panoramic Scan II (3Dhistech, Hungary), and digital images were analyzed using the image analysis program Visiopharm (version 2020.03.0.7300, Visiopharm, Hørsholm, Denmark) by detecting stained area per total section area for Galectin-3 or Collagen 1A1.

Data set [3] can be described thus: Body weight change in Pnpla3^148M/M knock-in mice fed a NASH-inducing diet. It counts as in vivo, mouse. Conditions: Pnpla3^148M/M mice, NASH diet 36 weeks, treatment last 14 weeks; ASO 5 mg/kg/week s.c.; Cotadutide 1 nmol/kg daily s.c.; FIG. 1A. The method, then:
All animal experiments were performed with humane care and were approved by the Gothenburg Ethics Committee for Experimental Animals in Sweden. The holding facility has received full accreditation from the Association for Assessment and Accreditation of Laboratory Animal Care (AAALAC). The human PNPLA3 […] mutation was introduced into the mouse Pnpla3 gene by replacing the isoleucine codon with a methionine codon in amino acid position 148 of the mouse Pnpla3 gene using homologous recombination as described before (Lindén et al Mol Metab, 2019, DOI: 10.1016/j.molmet.2019.01.013). Heterozygous Pnpla3^148I/M mice were intercrossed to generate experimental homozygous Pnpla3^148M/M knock-in mice for the pharmacology study. […]
Male Pnpla3^148M/M mice (6-8 weeks of age) were fed a diet high in fat (40 kcal % fat (non-trans fat Primex Shortening), fructose (20 kcal %) and cholesterol (2%) (NASH diet; D16022301, Research Diets, New Brunswick, NJ) for 22 weeks. The mice were then assigned to study groups based on body weight, and fed the same NASH diet and dosed with either 1) control ASO+saline, 2) Pnpla3 ASO+saline, 3) control ASO+Cotadutide, or 4) Pnpla3 ASO+Cotadutide for 14 weeks. […] Body weights were recorded during the study. […]

The test system of a further data set is mouse Pnpla3 mRNA. In words: Liver Pnpla3 mRNA by qPCR in Pnpla3^148M/M mice on NASH diet. In kind it is in vivo. Conditions: 14 weeks treatment, ASO 5 mg/kg/week s.c., FIG. 1B. The method, then:
Male Pnpla3^148M/M mice (6-8 weeks of age) were fed a diet high in fat (40 kcal % fat (non-trans fat Primex Shortening), fructose (20 kcal %) and cholesterol (2%) (NASH diet; D16022301, Research Diets, New Brunswick, NJ) for 22 weeks. The mice were then assigned to study groups based on body weight, and fed the same NASH diet and dosed with either 1) control ASO+saline, 2) Pnpla3 ASO+saline, 3) control ASO+Cotadutide, or 4) Pnpla3 ASO+Cotadutide for 14 weeks. The ASOs were dosed at 5 mg/kg/week administered by two subcutaneous injections per week with saline as vehicle. Cotadutide was dosed at 1 nmol/kg administered by daily subcutaneous injections with saline as vehicle. […] Body weights were recorded during the study. At sacrifice, unfasted mice were euthanized with isoflurane (Forene, Abbot Scandinavia AB, Sweden), blood was collected and plasma isolated, livers were collected, and pieces (same position in the left lateral lobe for all mice) were fixed with 4% formaldehyde in PBS for histology or snap-frozen in liquid N2 and stored at −80° C.
RNA was isolated from snap-frozen liver tissue using the RNeasy Mini Kit (Qiagen, Germany). The cDNA templates were generated by reverse transcription with a cDNA kit (ThermoFisher Scientific, Stockholm, Sweden) and used for real-time quantitative PCR with the QuantStudio 7 Flex instrument (Applied Biosystems, Stockholm, Sweden). […]
On the technique in general: Quantitative PCR measures a nucleic acid by following its amplification.

Turning to `CCCCCCCCCCCCCCCC(=O)N[C@@H](CCC(=O)NCCCC[C@H](NC(=O)[C@H](CC(=O)O)NC(=O)[C@H](CO)NC(=O)[C@@H](NC(=O)[C@H](Cc1ccccc1)NC(=O)[C@@H](NC(=O)CNC(=O)[C@H](CCC(N)=O)NC(=O)[C@H](CO)NC(=O)[C@@H](N)Cc1c[nH]cn1)[C@@H](C)O)[C@@H](C)O)C(=O)N[C@@H](CO)C(=O)N[C@@H](CCC(=O)O)C(=O)N[C@@H](Cc1ccc(O)cc1)C(=O)N[C@@H](CC(C)C)C(=O)N[C@@H](CC(=O)O)C(=O)N[C@@H](CO)C(=O)N[C@@H](CCC(=O)O)C(=O)N[C@@H](CCCNC(=N)N)C(=O)N[C@@H](C)C(=O)N[C@@H](CCCNC(=N)N)C(=O)N[C@@H](CC(=O)O)C(=O)N[C@@H](Cc1ccccc1)C(=O)N[C@H](C(=O)N[C@@H](C)C(=O)N[C@@H](Cc1c[nH]c2ccccc12)C(=O)N[C@@H](CC(C)C)C(=O)N[C@@H](CCC(=O)O)C(=O)N[C@@H](C)C(=O)NCC(=O)NCC(=O)O)C(C)C)C(=O)O` [Cotadutide], the “NAFLD activity score (NAS) compared to control ASO treated animals” value in data set [1] is “reduced the NAS”. Besides, the “liver fibrosis measured as liver collagen 1A1 content” value in data set [2] is recorded as “tended to reduce the liver collagen 1A1 content”. For the same compound, the “body weight-gain during the treatment period compared to control ASO treated animals” value in data set [3] was “reduced body weight-gain”.

On to “Pnpla3 ASO: mouse cEt-modified 16-mer ASO targeting mouse Pnpla3 gene (5′-TATTTTTGGTGTATCC-3′, SEQ ID NO: 37), 5′-conjugated with triantennary GalNAc3 (5' {GalNAc3}, sugars by position and backbone not given here; cEt-modified)”, for which, in data set [1], the “NAFLD activity score (NAS) compared to control ASO treated animals” value was “reduced the NAS”. Moreover, in data set [2], the “liver fibrosis measured as liver collagen 1A1 content” value is given as “tended to reduce liver fibrosis”. In the data set with mouse Pnpla3 mRNA, the “reduction of liver Pnpla3 mRNA levels” value is listed as at least 97%. Also, in data set [3], the “body weight-gain during the treatment period compared to control ASO treated animals” value was “but not Pnpla3 ASO treatment reduced body weight-gain”.
